In the supplement of paper PMC10307832:

Key:
Experiment in all cases: relative viability (nuclei count vs DMSO), 5 days (fraction); higher = more cells survive
Phenformin = compound: N=C(N)NC(=N)NCCc1ccccc1 [Phenformin] (anchor plate); conditions: 250 µM
How it was run: (§1)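 MetaXpress counted nuclei in 4× images of lung cancer cell lines that had been fixed, permeabilised and Hoechst-stained in one step. Before that, cells in 1536-well plates were kept overnight at 37 °C, pinned with five √10-spaced library-drug doses on vehicle-anchored plates, and cultured 5 days without medium change. Viability takes treated-well nuclei over vehicle-well nuclei and uses the median across plates. Plates were accepted only at control CV below 25% and at least one doubling.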

Erlotinib = compound: C#Cc1cccc(Nc2ncnc3cc(OCCOC)c(OCCOC)cc23)c1 [Erlotinib]
How it was run: as §1

AT9283 = compound: O=C(Nc1c[nH]nc1-c1nc2ccc(CN3CCOCC3)cc2[nH]1)NC1CC1 [AT9283]
How it was run: as §1

Cell Line	relative viability (Phenformin)	relative viability (Erlotinib; 0.02 µM)	relative viability (Erlotinib; 0.2 µM)	relative viability (Erlotinib; 0.6325 µM)	relative viability (Erlotinib; 2 µM)	relative viability (AT9283; 0.003 µM)	relative viability (AT9283; 0.03 µM)	relative viability (AT9283; 0.09487 µM)	relative viability (AT9283; 0.3 µM)
HCC-15	0.491	1.05	0.97	1.08	0.888	0.955	0.589	0.325	0.17
HCC-78	0.681	0.99	0.963	1.08	0.745	0.847	0.794	0.332	0.262
NCI-H2170	0.439	1.02	0.996	0.872	0.656	0.991	0.864	0.471	0.197
NCI-H23	0.749	0.959	0.757	1.16	0.979	0.895	0.71	0.432	0.306
NCI-H838	0.634	1	0.896	1.14	0.883	0.969	0.517	0.313	0.253
NCI-H522	0.639	0.949	1.03	0.86	0.816	0.776	0.618	0.611	0.464
NCI-H1650	0.465	0.739	0.756	0.838	0.671	0.933	0.788	0.447	0.3
EMC-BAC-2	0.558	0.743	1.04	1.1	0.979	0.907	0.463	0.319	0.221
NCI-H1563	0.681	1.03	0.898	–	0.953	0.995	0.815	0.661	0.617
HCC-366	0.608	1.03	1.07	0.984	1.01	0.956	0.938	0.54	0.204
SW 1573	0.385	1.02	0.955	1.02	0.925	0.913	0.326	0.222	0.177
LOU-NH91	0.705	0.831	0.696	0.756	0.68	0.936	0.812	0.614	0.48
NCI-H1299	–	1.03	1.02	1.05	0.992	1.03	0.699	0.473	0.364
HCC-44	0.218	0.994	0.961	1.01	0.975	0.988	1	0.614	0.335
NCI-H1437	0.296	1.01	1.03	1.03	0.958	0.95	0.976	0.55	0.22
H3255	0.386	0.946	0.709	0.514	0.225	0.998	0.95	0.714	0.177
Calu-6	–	1.01	0.986	1.01	0.907	1.01	0.299	0.246	0.273
NCI-H2085	0.724	0.932	0.851	0.843	0.699	1	0.946	0.937	0.447
EPLC-272H	0.321	1.06	0.882	1.02	0.724	0.886	0.81	0.203	0.156

Cell Line	relative viability (Phenformin)	relative viability (Erlotinib; 0.02 µM)	relative viability (Erlotinib; 0.2 µM)	relative viability (Erlotinib; 0.6325 µM)	relative viability (Erlotinib; 2 µM)	relative viability (AT9283; 0.003 µM)	relative viability (AT9283; 0.03 µM)	relative viability (AT9283; 0.09487 µM)	relative viability (AT9283; 0.3 µM)
NCI-H1355	0.456	0.978	0.878	0.956	0.755	0.956	0.971	0.68	0.197
BEN	0.263	0.927	0.954	1.19	0.961	0.874	0.965	0.23	0.278
NCI-H1623	0.577	0.945	0.723	0.592	0.333	0.94	0.928	0.545	0.501
NCI-H727	0.578	0.924	0.768	0.844	0.769	0.98	0.746	0.502	0.406
NCI-H2342	0.607	0.903	0.891	0.84	0.725	1.04	0.877	0.78	0.424
UMC-11	0.318	0.956	0.944	1.18	0.964	0.903	0.171	0.146	0.212
NCI-H1755	0.626	1	1.02	1.06	0.935	1.02	1.01	0.617	0.639
LCLC-103H	0.348	1.03	0.919	1	0.929	0.885	1.02	0.926	0.376
NCI-H1666	0.571	0.973	0.928	0.855	0.728	0.975	0.847	0.66	0.535
LC-2-ad	0.605	0.998	1.08	1.01	0.826	0.93	0.695	0.233	0.177
PC-14	0.608	0.574	0.31	0.289	0.228	1.05	0.823	0.377	0.133
201T	0.45	0.963	0.957	0.946	0.865	0.909	0.97	0.537	0.361
NCI-H1651	0.328	1.03	0.896	1.04	0.946	0.951	0.999	0.875	0.455
IA-LM	–	0.947	0.777	1.08	0.885	0.853	0.735	0.267	0.111
RERF-LC-KJ	0.42	0.947	0.879	0.871	0.716	0.986	0.667	0.431	0.27
COR-L 105	0.551	0.931	0.515	0.4	0.334	0.983	0.4	0.334	0.334
ABC-1	0.25	0.827	0.881	1.01	0.81	0.831	0.301	0.3	0.235
NCI-H1915	0.359	1.07	1.01	–	0.977	0.925	0.929	0.461	0.256
